Test results reported in US8193175B2, “Ruthenium complexes for treating cancers” (Universite de Strasbourg, priority 2004, dated 2012).

Tests used:
[1] = test system: U-937; assay: Proliferation test (UptiBlue) on U-937; assay type: cell-based, human; conditions: 72 hours, unit inferred
Description: (§1) All of these cells are cultivated in RPMI 1640-Glutamax, supplemented by 10% calf foetal serum heat inactivated at 56° C. for 30 minutes, 1 mM sodium pyruvate, 1 mM non-essential amino acids and 50 μg/mL gentamycine (Life Technologies, Cergy Pontoise, France). The cultures are kept in an incubator at 37° C. with a moisture saturated atmosphere, with 5% CO2.
(§2) This test uses the UptiBlue reagent (Interchim, Montluçon, France), metabolised by the living cells. The cells are incubated on plates with 96 wells with 10^4 cells/well (200 μL) with the product and cultivated for 72 hours. Then, 20 μL UptiBlue are added to each well. After 3 hours incubation, the fluorescence of the samples contained in the plates is measured at 590 nm (excitation at 560 nm), using a Fluorolite 1000 microplate reader (Dynex technologies, Issy-Les-Moulineaux, France).
(§3) Compound 9 on other cell lines gives the following IC50: • 9 (NH32):3; 9 (Molt-4):3.8; 9 (WTK1): 3; 9 (U-937): 3. • RDM4: lymphoma, mouse AKR • TK6: human lymphoblastoid line • NH32: TK6 variant, not expressing p53 (“p53 knock-out”) • WTK1: other TK6 variant, expressing a p53 mutated gene • MOLT-4: human T lymphoblastic leukemia • U-937: human promonocyte leukemia Proliferation Test for the RDM4 Line with each Compound

[2] = test system: A172, HS683, N2A, and SH5Y; assay: MTT test on glioblastoma and neuroblastoma lines; assay type: cell-based, human; conditions: 48 hrs treatment; compared with cisplatinum
Description: FIG. 1: The A172 cells were cultivated on plates with 96 wells in DMEM medium with 10% calf serum. At 30% confluence, the cells were treated for 48 hrs with cisplatinum or the various compounds derived from ruthenium in the concentrations indicated (1, 5, 15, 50 μM). The quantity of cells present in the wells was evaluated by an MTT (MTT, Sigma) test of which the products of the reaction are quantified with an Elisa plate reader (Metertech, USA) (490-650 nm). The results obtained were related to the values of the control condition (100% viability). The graphs show an average of 8 points with the typical spacings over one experiment representative of 4 carried out. The thick black line indicates the IC50 for each graph.
TABLE 2: a summary of the results obtained on various cell lines and primary glial cultures. The experiments were carried out under the same conditions as those described for the A172 cells. Each IC50 is an indicative value obtained over 4 independent experiments.
(§4) The first step towards characterising the anticancerous effects of the compounds derived from ruthenium consists of testing their activity on tumoral lines kept in culture and comparing these effects on lines which have different characteristics as regards resistance to the anticancer treatments. Two lines of human glioblastomas (A172, HS683) and two lines of neuroblastomas (N2A and SH5Y) were used in order to test the cytostatic effects of the compounds according to the invention. Cisplatinum was chosen as the cytotoxic comparison agent. In a first approach, an MTT test was used to measure the activity of a mitochondrial enzyme, and this gives an estimate of the number of cells. Then, the cytotoxic effects of the compounds according to the invention were characterised in greater detail by analysing the morphology of the nucleus and the activation of caspase 3—two markers of cell apoptosis.

[3] = test system: RDM4 line; assay: Proliferation test (UptiBlue) on RDM4 line; assay type: cell-based, mouse; conditions: 72 hours
Description: (§5) The products are tested on different cell lines. The cells used are RDM4 from a murine T lymphoma and a MOLT-4 line originating from an acute lymphoblastic leukemia. These cancer lines both express the p53 protein, unlike the HL-60 cells from a human promyelocytary leukemia where, following deletion of its gene, p53 is absent.
as §1, §2
The potential anti-cancers are first of all selected on the RDM4 line. The effect of the different organo-ruthenium compounds upon the cell viability is firstly determined by a proliferation test as a function of the product concentration. The activity of the compounds derived from Ru is compared to that of cisplatinum. The exposure of the RDM4 cells to these derivatives is translated by a dose-dependent reduction in their proliferation. Therefore, the effect is dependent upon the organic complex which surrounds the Ru nucleus. The inhibition concentration of the growth of 50% of the cells (IC50) is determined for each of the products. […] The ruthenium derivatives showing an excessive IC50 (>50 μM) were eliminated from the biological study.

[4] = test system: WTK1; assay: Proliferation test (UptiBlue) on WTK1; assay type: cell-based, human; conditions: 72 hours, unit inferred
Description: as §1, §2, §3

[5] = test system: NH32; assay: Proliferation test (UptiBlue) on NH32; assay type: cell-based, human; conditions: 72 hours, unit inferred
Description: The influence of the p53 protein upon the effects induced by the products was determined by using the human lymphoblastoid line TK6 (p53 wild-type) and its NH32 variant of which the p53 gene was totally inactivated by double homologous recombination (Chuang et al, 1999). The TK6 cells originate from the American Tissue Culture Collection (ATGC, Manassas, Va., USA). The NH32 cells were supplied by H. L. Liber (Chuang et al, 1999).
as §1
as §2, with “France). […]” for “France).”

[6] = test system: RDM4; assay: Apoptosis by marking with Annexin-V on RDM4; assay type: cell-based, mouse
Description: Cell death is measured by a first specific marking of the apoptosis. The externalisation of the anionic phospholipids, normally located on the inner layer of the plasmic membrane, is one of the precocious markers of apoptosis (Martin et al, 1996). Annexin-V is a protein which fixes specifically onto the phosphatidylserines in the presence of calcium. When Annexin-V is coupled to a fluorochrome, it makes it possible to quantify the apoptotic cells by flux cytometry.
The control cells are treated with the equivalent volume of solvent (ethanol). […] After 72 hrs, the apoptosis rate is still as low as that of the control cells. On the other hand, with treatment at 45 μM, this rate already reaches 70% at 24 hrs and exceeds 99% after 48 hrs—a sign of significant apoptosis induction.

[7] = test system: RDM4; assay: DNA fragmentation by marking with propidium iodure on RDM4; assay type: cell-based, mouse
From the text: A second specific marking of apoptosis is the fragmentation of DNA between the nucleosomes. The fragmented DNA is located in the apoptotic bodies in the terminal phase of apoptosis. This DNA is hypodiploid and so less in quantity than that present in normal cells. It can be quantified by flux cytometry after permeabilisation of the cell membranes and marking with PI. The quantity of DNA in a normal cell is 2n in the G0/G1 phase and 4n in the G2 phase. Therefore, the sub-G0 DNA in a quantity of less than 2n has a weaker fluorescence intensity.
This phenomenon tends to diminish after 48 hrs of treatment. On the other hand, when the cells are treated with 45 μM, the formation of hypodiploid particles, visualised by the sub-G0 DNA content, is less than 10% at 24 hrs and exceeds 50% at 48 hrs such as to reach 60% at 72 hrs. […] The quantity of hypodiploid particles in the control cells remains less than 4% over this same period.

[8] = test system: A172 glioblastoma cells; assay: Nucleus morphology and caspase 3 activation in A172 cells; assay type: cell-based, human; conditions: for nuclear condensation and fragmentation: 48 hrs treatment
From the text: FIG. 2: A—The A172 cells were cultivated on glass slides. […] The cells were then fixed in 4% paraformaldehyde, permeabilised with 0.1% NP40 and marked with Hoechst dye (blue) and the anti-p20 antibody (active fragment of caspase 3, in red). The cells were then observed under the fluorescence microscope. B—Graphic representation of the number of cells with an apoptotic, fragmented or condensed nucleus. The bars are an average of two slides from one experiment representative of 3 carried out. C—In parallel, proteic extracts were prepared from cells treated with various drugs (cisplatinum 15 μM; CDR225 μM; CDR615 μM; CDR915 μM) and following denaturation the extracts were deposited on a !0% SDS-Page gel. After migration, the proteins were transferred onto nitrocellulose (Biorad, 0.2 μm) and the p20 fragment of the caspase 3 was detected by Western blot with an anti-p20 antibody (1/1000, R&D System).
as §4

[9] = test system: MOLT-4; assay: Proliferation test (UptiBlue) on MOLT-4; assay type: cell-based, human; conditions: 72 hours, UptiBlue; unit inferred; read-out: IC50 (Molt-4)
Description: as §5, §1
as §2, with “France). […]” for “France).”

| SMILES | IC50 [1] [µM] | reduction of the number of tumoral cells (MTT) [2] | IC50 [3] [µM] | IC50 [4] [µM] | IC50 [5] [µM] | apoptosis rate (Annexin-V) ([6]; 15 μM, up to 72 hrs) | apoptosis rate (Annexin-V) ([6]; 45 μM, 24 hrs) [%] | cell cycle distribution (propidium iodure) ([7]; 15 μM, first two days) | hypodiploid particles (sub-G0 DNA content) ([7]; 45 μM, 72 hrs) [%] | nuclear condensation and fragmentation [8] | proteic levels of the active fragment of caspase 3 (Western blot) ([8]; cisplatinum 15 μM, CDR6 15 μM, CDR9 15 μM) | IC50 [9] [µM] |
| --- | --- | --- | --- | --- | --- | --- | --- | --- | --- | --- | --- | --- |
| CC#N.CC#N.CC#N.CP(C)c1ccccc1.F[P-](F)(F)(F)(F)F.[Ru+][c]1ccccc1-c1ccccn1 [Compound 9, [Ru (C6H4-2-C5H4N) (PMe2Ph) (NCMe)3]PF6] | 3 | at a concentration similar to or lower than that of cisplatinum | 12 | 3 | 3 | does not shown any effect | 70 | accumulation in the G0/G1 phase | 60 | induce nuclear condensation and fragmentation characteristic of apoptosis | increasing the proteic levels of the active fragment of caspase 3 | 3.8 |
| CC#N.CC#N.Cc1ccnc(-c2cc(C)ccn2)c1.F[P-](F)(F)(F)(F)F.[Ru+][c]1ccccc1-c1ccccn1 [Compound 12, [Ru(C6H4-2-C5H4N)(4,4′-dimethyl-2,2′-bipyridine)(NCMe)2]PF6] |  | at a concentration similar to or lower than that of cisplatinum | 9 |  |  |  |  |  |  | induce nuclear condensation and fragmentation characteristic of apoptosis |  |  |
| CC#N.CC#N.CN(C)Cc1cccc[c]1[Ru+].F[P-](F)(F)(F)(F)F.c1ccc(-c2ccccn2)nc1 [Compound 13, [Ru-2-(CH2NMe2)—C6H4-(bipy) (NCMe)2]PF6] |  |  | 11 |  |  |  |  |  |  |  |  |  |
